The test system of one experiment is HIV-1 NL4-3 DTV. The note with it: read-out: IC50 DTV, P4-CCR5 cells, peptide 2 h before infection, readout three days after infection. The source says:
(§1) These cells contain the β-galactosidase reporter gene under the control of the HIV-1 promoter. Thus, activation of the β-galactosidase reporter gene allows to measure the efficiency of HIV-1 infection and thus to quantitate the potency of HIV-1 inhibitors (Detheux M. et al., 2000; Journal of Experimental Medicine 192, 1501-1508; Münch et al., 2002; Antimicrobial Agents and Chemotherapy 46, 982-990).
(§2) To perform a typical infection assay, P4-CCR5 cells (Charneau et al., 1994; Journal of Molecular Biology 241, 651-662; Charneau et al., Virology. 1994 205, 247-53) were kept in RPMI 1640 medium supplemented with 10 volume % FCS. This cell line coexpresses CD4 and both HIV-1 coreceptors CCR5 and CXCR4 and contains the β-galactosidase gene under the control of the HIV-1 promoter. Virus stocks were generated by the calcium coprecipitation method as described (Detheux et al., J Exp Med. 192:1501-8; 2000), and the p24 antigen levels were quantitated with an HIV p24 ELISA kit obtained through the NIH AIDS Reagent Program. Cells were seeded in flat-bottomed 96-well dishes, cultured overnight, and incubated with the different doses of peptide for 2 h before infection with virus containing 1 ng of p24 antigen in a total volume of […] of medium. After overnight incubation, cells were washed twice and cultivated in fresh culture medium without inhibitory peptide. Three days after infection the cells were lysed, and infectivity was quantitated using the Galacto-Light Plus™ chemiluminescence reporter assay kit (Tropix, Bedford, Mass.) as recommended by the manufacturer. All infections were performed in quintuplicate.

A further experiment deals with X4-tropic HIV-1 NL4-3. The note with it: read-out: IC50 NL4-3; P4-CCR5 cells, HIV-1 NL4-3, peptide 2 h before infection, readout three days after infection.
Description: as §1, §2

Positions of bridges follow the written chain, without caps; N, C: chain ends. Non-standard residues stand in square brackets, D forms with d. Residues, ends and D or L forms follow the SMILES beside them. Tic = O=C(O)[C@@H]1Cc2ccccc2CN1

As a reminder, the IC50 is the concentration that inhibits the measured activity by half. For the molecule `CC[C@H](C)[C@H](NC(=O)[C@H](C)NC(=O)[C@H](CCC(=O)O)NC(=O)[C@@H](N)CC(C)C)C(=O)N1CCC[C@H]1C(=O)N[C@H]1CSSC[C@@H](C(=O)N[C@H](C(=O)NCC(=O)N[C@@H](Cc2ccccc2)C(=O)NCC(=O)N[C@@H](CCCCN)C(=O)N2CCC[C@H]2C(=O)N[C@@H](Cc2ccccc2)C(=O)N[C@H](C(=O)N[C@@H](Cc2ccccc2)C(=O)O)C(C)C)C(C)C)NC(=O)[C@@H]2CCCN2C(=O)[C@@H]2CCCN2C(=O)[C@H]([C@@H](C)CC)NC(=O)[C@H](CO)NC1=O` [VIR-162] (H-LEAIPCSIPPCVGFGKPFVF-OH; disulfide 6-11), the figures for the IC50 in the experiment with HIV-1 NL4-3 DTV and in the experiment with X4-tropic HIV-1 NL4-3 were 950 nM and 660 nM, respectively.
Take `CC[C@H](C)[C@H](NC(=O)[C@H](C)NC(=O)[C@H](CCC(=O)O)NC(=O)[C@@H](N)CC(C)C)C(=O)N1CCC[C@H]1C(=O)N[C@H]1CSSC[C@@H](C(=O)N[C@H](C(=O)N[C@@H](CC(C)C)C(=O)N[C@@H](Cc2ccccc2)C(=O)N[C@@H](CC(N)=O)C(=O)N[C@@H](CCCCN)C(=O)N2CCC[C@H]2C(=O)N[C@@H](Cc2ccccc2)C(=O)N[C@H](C(=O)N[C@@H](Cc2ccccc2)C(=O)O)C(C)C)C(C)C)NC(=O)[C@@H]2CCCN2C(=O)[C@@H]2CCCN2C(=O)[C@H]([C@@H](C)CC)NC(=O)[C@H](CO)NC1=O` [VIR-163] (H-LEAIPCSIPPCVLFNKPFVF-OH; disulfide 6-11): the 50% inhibitory concentration (IC50) in the experiment with HIV-1 NL4-3 DTV came to 290 nM; in the experiment on X4-tropic HIV-1 NL4-3 it was 760 nM.
For `CC[C@H](C)[C@H](NC(=O)[C@H](C)NC(=O)[C@H](CCC(=O)O)NC(=O)[C@@H](N)CC(C)C)C(=O)N1CCC[C@H]1C(=O)N[C@@H](CCSC)C(=O)N[C@@H](CO)C(=O)N[C@H](C(=O)N1CCC[C@H]1C(=O)N1CCC[C@@H]1C(=O)N[C@@H](CCC(=O)O)C(=O)N[C@H](C(=O)NCC(=O)N[C@@H](Cc1ccccc1)C(=O)NCC(=O)N[C@@H](CCCCN)C(=O)N1CCC[C@H]1C(=O)N[C@@H](Cc1ccccc1)C(=O)N[C@H](C(=O)N[C@@H](Cc1ccccc1)C(=O)O)C(C)C)C(C)C)[C@@H](C)CC` [VIR-190, LEAIPMSIPpEVGFGKPFVF] (H-LEAIPMSIP[dP]EVGFGKPFVF-OH), the IC50 in the experiment on HIV-1 NL4-3 DTV was 3110 nM; with X4-tropic HIV-1 NL4-3 it was 1840 nM.
On to `CC[C@H](C)[C@H](NC(=O)[C@H](CC(=O)O)NC(=O)[C@H](CCC(=O)O)NC(=O)[C@@H](N)CC(C)C)C(=O)N1CCC[C@H]1C(=O)N[C@@H](CCSC)C(=O)N[C@@H](CO)C(=O)N[C@H](C(=O)N1CCC[C@H]1C(=O)N1CCC[C@@H]1C(=O)N[C@@H](CCC(=O)O)C(=O)N[C@H](C(=O)N1Cc2ccccc2C[C@H]1C(=O)N[C@@H](Cc1ccccc1)C(=O)N[C@@H](CC(N)=O)C(=O)N[C@@H](CCCCN)C(=O)N1CCC[C@H]1C(=O)N[C@@H](Cc1ccccc1)C(=O)N[C@H](C(=O)N[C@@H](Cc1ccccc1)C(=O)O)C(C)C)C(C)C)[C@@H](C)CC` [VIR-452, LEDIPMSIPpEV(L-Tic)FNKPFVF] (H-LEDIPMSIP[dP]EV[Tic]FNKPFVF-OH), for which the half-maximal inhibitory concentration (IC50) in the experiment on X4-tropic HIV-1 NL4-3 was 184 nM.
The same measure, in the same setting: then `CC[C@H](C)[C@H](NC(=O)[C@@H]1CCCN1C(=O)[C@@H](NC(=O)[C@H](CC(=O)O)NC(=O)[C@H](CCC(=O)O)NC(=O)[C@@H](N)CC(C)C)[C@@H](C)CC)C(=O)NCC(=O)N[C@H](C(=O)N1CCC[C@H]1C(=O)N1CCC[C@@H]1C(=O)N[C@@H](CCC(=O)O)C(=O)N[C@@H](Cc1ccccc1)C(=O)N[C@@H](CC(C)C)C(=O)N[C@@H](Cc1ccccc1)C(=O)N[C@@H](CC(N)=O)C(=O)N[C@@H](CCCCN)C(=O)N1CCC[C@H]1C(=O)N[C@@H](Cc1ccccc1)C(=O)N[C@H](C(=O)N[C@@H](Cc1ccccc1)C(=O)O)C(C)C)[C@@H](C)CC` [VIR-479, LEDIPIGIPpEFLFNKPFVF] (H-LEDIPIGIP[dP]EFLFNKPFVF-OH), with 479 nM.
Take `CC[C@H](C)[C@H](NC(=O)[C@@H]1CCCN1C(=O)[C@@H](NC(=O)[C@H](CCCCN)NC(=O)[C@H](CCC(=O)O)NC(=O)[C@@H](N)CC(C)C)[C@@H](C)CC)C(=O)NCC(=O)N[C@H](C(=O)N1CCC[C@H]1C(=O)N1CCC[C@@H]1C(=O)N[C@@H](CCC(=O)O)C(=O)N[C@H](C(=O)N[C@@H](C)C(=O)N[C@@H](Cc1ccccc1)C(=O)N[C@@H](CC(N)=O)C(=O)N[C@@H](CCCCN)C(=O)N1Cc2ccccc2C[C@H]1C(=O)N[C@@H](Cc1ccccc1)C(=O)N[C@H](C(=O)N[C@@H](Cc1ccccc1)C(=O)O)C(C)C)C(C)C)[C@@H](C)CC` [VIR-485, LEKIPIGIPpEVAFNK(L-Tic)FVF] (H-LEKIPIGIP[dP]EVAFNK[Tic]FVF-OH): in the experiment with X4-tropic HIV-1 NL4-3, the IC50 is 760 nM.
The same measure, in the same setting: then `CC[C@H](C)[C@H](NC(=O)[C@@H]1CCCN1C(=O)[C@@H](NC(=O)[C@H](CC(=O)O)NC(=O)[C@H](CCC(=O)O)NC(=O)[C@@H](N)CC(C)C)[C@@H](C)CC)C(=O)NCC(=O)N[C@H](C(=O)N1CCC[C@H]1C(=O)N1CCC[C@@H]1C(=O)N[C@@H](CCC(=O)O)C(=O)N[C@H](C(=O)N1Cc2ccccc2C[C@H]1C(=O)N[C@@H](Cc1ccccc1)C(=O)N[C@@H](CC(N)=O)C(=O)N[C@@H](CCCCN)C(=O)N1CCC[C@H]1C(=O)N[C@@H](Cc1ccccc1)C(=O)N[C@H](C(=O)N[C@@H](Cc1ccccc1)C(=O)O)C(C)C)C(C)C)[C@@H](C)CC` [VIR-487, LEDIPIGIPpEV(L-Tic)FNKPFVF] (H-LEDIPIGIP[dP]EV[Tic]FNKPFVF-OH), with 256 nM; and `CC[C@H](C)[C@H](NC(=O)[C@@H]1CCCN1C(=O)[C@@H](NC(=O)[C@H](CC(=O)O)NC(=O)[C@H](CCC(=O)O)NC(=O)[C@@H](N)CC(C)C)[C@@H](C)CC)C(=O)NCC(=O)N[C@H](C(=O)N1CCC[C@H]1C(=O)N1CCC[C@@H]1C(=O)N[C@@H](CCC(=O)O)C(=O)N[C@H](C(=O)N[C@@H](C)C(=O)N[C@@H](Cc1ccccc1)C(=O)N[C@@H](CC(N)=O)C(=O)N[C@@H](CCCCN)C(=O)N1Cc2ccccc2C[C@H]1C(=O)N[C@@H](Cc1ccccc1)C(=O)N[C@H](C(=O)N[C@@H](Cc1ccccc1)C(=O)O)C(C)C)C(C)C)[C@@H](C)CC` [VIR-488, LEDIPIGIPpEVAFNK(L-Tic)FVF] (H-LEDIPIGIP[dP]EVAFNK[Tic]FVF-OH), with 415 nM; and `CC[C@H](C)[C@H](NC(=O)[C@H](C)NC(=O)[C@H](CCC(=O)O)NC(=O)[C@@H](N)CC(C)C)C(=O)N1CCC[C@H]1C(=O)N[C@H]1CSSC[C@@H](C(=O)N[C@@H](CC(C)C)C(=O)N[C@@H](Cc2ccccc2)C(=O)NCC(=O)N[C@@H](CCCCN)C(=O)N2CCC[C@H]2C(=O)N[C@@H](Cc2ccccc2)C(=O)N[C@H](C(=O)N[C@@H](Cc2ccccc2)C(=O)O)C(C)C)NC(=O)[C@H](CCC(=O)O)NC(=O)[C@@H]2CCCN2C(=O)[C@@H]2CCCN2C(=O)[C@H]([C@@H](C)CC)NC(=O)[C@H](CO)NC1=O` [VIR-570] (H-LEAIPCSIPPECLFGKPFVF-OH; disulfide 6-12), with 231 nM.
Same read-out and setting: then H-LEAIPISIPPELAFAKPFVF-OH [VIR-286], with 559 nM; and H-LEAIPISIPPEVFFGKPFVF-OH [VIR-284], with 281 nM.
Turning to LEAIPMKIPPEFLFGKPFVF [VIR-590], in the experiment with X4-tropic HIV-1 NL4-3, the IC50 stood at 343 nM.

The values above are taken from patent US7655629B2, “Peptides and their use for the treatment of HIV infections” (priority 2002, dated 2010).
